These results are taken from ChEMBL document CHEMBL4118072, “2-Substituted-thio-N-(4-substituted-thiazol/1H-imidazol-2-yl)acetamides as BACE1 inhibitors: Synthesis, biological evaluation and docking studies” (Eur J Med Chem, 2017).

SMILES strings stand for the structures.

Data set [1] addresses T1, Beta-secretase 1 (Homo sapiens, UniProt P56817). Description: Inhibition of BACE1 (unknown origin) at 50 uM using Rh-EVNLDAEFK-Quencher as substrate after 60 mins by FRET assay relative to control.
Data set [2] has as its target T1, Beta-secretase 1. Description: Inhibition of BACE1 (unknown origin) at 10 uM using Rh-EVNLDAEFK-Quencher as substrate after 60 mins by FRET assay relative to control.
Data set [3] can be described thus: Cytotoxicity against HEK293 cells assessed as decrease in cell viability after 72 hrs by CellTiter Glo luminescent assay. The class given is cell-based. Conditions: human.
The next data set can be described thus: in vitro. The conditions noted are these: PAMPA.
The target in data set [4] is T1, Beta-secretase 1. The data set can be described thus: Inhibition of BACE1 (unknown origin) using Rh-EVNLDAEFK-Quencher as substrate after 60 mins by FRET assay.
In data set [5] the target is T1, Beta-secretase 1. Description: Binding affinity to BACE1 (unknown origin) by SPR method.
Data set [6] has as its target T1, Beta-secretase 1. Description: Inhibition of BACE1 (unknown origin) at 1 uM using Rh-EVNLDAEFK-Quencher as substrate after 60 mins by FRET assay.

T1 sequence (P56817 whole entry): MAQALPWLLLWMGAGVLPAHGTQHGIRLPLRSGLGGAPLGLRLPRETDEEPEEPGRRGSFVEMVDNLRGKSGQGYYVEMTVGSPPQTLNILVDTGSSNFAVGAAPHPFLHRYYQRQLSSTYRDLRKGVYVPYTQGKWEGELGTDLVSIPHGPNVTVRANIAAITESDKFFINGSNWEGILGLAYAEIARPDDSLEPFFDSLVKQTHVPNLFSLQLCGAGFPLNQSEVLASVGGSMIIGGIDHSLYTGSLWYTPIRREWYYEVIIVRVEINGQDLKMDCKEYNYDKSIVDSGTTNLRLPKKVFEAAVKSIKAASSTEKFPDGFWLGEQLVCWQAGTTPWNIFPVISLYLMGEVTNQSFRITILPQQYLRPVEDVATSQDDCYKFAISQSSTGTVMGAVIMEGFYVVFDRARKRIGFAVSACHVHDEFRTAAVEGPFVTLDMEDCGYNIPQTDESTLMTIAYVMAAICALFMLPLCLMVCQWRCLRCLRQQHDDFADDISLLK
Description for in vitro: Permeability of the compound at 25 ug/ml after 18 hrs by PAMPA

For the compound `N#Cc1c(-c2cccc(OC(F)(F)F)c2)nc(SCC(=O)Nc2nc(-c3cc(Cl)c(N)c(Cl)c3)cs2)[nH]c1=O`, the figures for the inhibition against Beta-secretase 1 [1] and at Beta-secretase 1 [2] were 39.6% and 6.1%, respectively.

With `COc1cccc(-c2nc(SCC(=O)Nc3nc(-c4cc(Cl)c(N)c(Cl)c4)c[nH]3)[nH]c(=O)c2C#N)c1`, the CC50 at 72 h in data set [3] is more than 50 µM. The Papp at 18 h, 25 ug/ml in the data set “in vitro” amounted to 0.34 ×10⁻⁶ cm/s. On Beta-secretase 1 [4], the IC50 amounted to 3.2 µM. The equilibrium dissociation constant (Kd) at Beta-secretase 1 [5] was determined as 0.169 µM. In addition, the inhibition against Beta-secretase 1 [6] was 26.4%; on Beta-secretase 1 [2], 87.7%.

In the data set “in vitro”, `Clc1cccc(Cl)c1N=C1NCCN1` [CLONIDINE] gave a Papp at 18 h, 25 ug/ml of 5.9 ×10⁻⁶ cm/s.

Turning to `COc1cccc(-c2nc(SCC(=O)Nc3nc(-c4cccc(Br)c4)cs3)[nH]c(=O)c2C#N)c1`, the CC50 at 72 h in data set [3] was more than 50 µM. In the data set “in vitro”, this compound gave an apparent permeability coefficient (Papp) at 18 h, 25 ug/ml of 0.94 ×10⁻⁶ cm/s. This compound also returned an IC50 on Beta-secretase 1 [4] of 17.5 µM. At Beta-secretase 1 [5], this compound displayed a Kd of 1.74 µM. The inhibition at Beta-secretase 1 [1] was 90.4%; at Beta-secretase 1 [2] it was 14.3%.

`CCOc1cccc(-c2nc(SCC(=O)Nc3nc(-c4cc(Cl)c(N)c(Cl)c4)cs3)[nH]c(=O)c2C#N)c1`: the CC50 at 72 h in data set [3] is more than 50 µM. For the same compound, the Papp at 18 h, 25 ug/ml in the data set “in vitro” was 0.07 ×10⁻⁶ cm/s. This compound returned an IC50 at Beta-secretase 1 [4] of 13.5 µM. The inhibition at Beta-secretase 1 [1] stood at 79.9%; on Beta-secretase 1 [2] it was 24.5%.

On to `CCOc1cccc(-c2nc(SCC(=O)Nc3nc(-c4cc(Cl)c(NC(C)=O)c(Cl)c4)cs3)[nH]c(=O)c2C#N)c1`, for which the values for the inhibition against Beta-secretase 1 [1] and on Beta-secretase 1 [2] were 4.7% and 2.5%, respectively.

Take `CN[C@@H]1C[C@H]2O[C@@](C)([C@@H]1OC)n1c3ccccc3c3c4c(c5c6ccccc6n2c5c31)C(=O)NC4` [STAUROSPORINE]: the CC50 at 72 h in data set [3] came out at 0.00354 µM.

Take `COc1cccc(-c2nc(SCC(=O)Nc3nc(-c4cc(Cl)c(N)c(Cl)c4)cs3)[nH]c(=O)c2C#N)c1`: the CC50 at 72 h in data set [3] was more than 50 µM. Further, the Papp at 18 h, 25 ug/ml in “in vitro” is 0.11 ×10⁻⁶ cm/s. This compound also returned an IC50 at Beta-secretase 1 [4] of 7.7 µM. Further, the affinity on Beta-secretase 1 [5], expressed as Kd, was 0.861 µM. The inhibition against Beta-secretase 1 [1] was found to be 91.8%; against Beta-secretase 1 [2], 58.9%.

For the compound `N#Cc1c(-c2cccc(C(F)(F)F)c2)nc(SCC(=O)Nc2nc(-c3cc(Cl)c(N)c(Cl)c3)cs2)[nH]c1=O`, the CC50 at 72 h in data set [3] worked out at 47.7 µM. In “in vitro”, this compound had a Papp at 18 h, 25 ug/ml of 0.88 ×10⁻⁶ cm/s. For the same compound, at Beta-secretase 1 [4], the IC50 came to 13.4 µM. This compound had a Kd at Beta-secretase 1 [5] of 1.33 µM. The inhibition against Beta-secretase 1 [1] was found to be 86.1%; against Beta-secretase 1 [2] it was 13%.

In the case of `COc1cccc(-c2nc(SCC(=O)Nc3nc(-c4cc(Cl)c(NC(C)=O)c(Cl)c4)cs3)[nH]c(=O)c2C#N)c1`, the inhibition was 1.4% on Beta-secretase 1 [1] and 0.3% on Beta-secretase 1 [2].
